From patent US20050261472A1, “Binding moieties for fibrin” (Dyax Corp., priority 1999, published 2005)

Tests used:
DD(E) = biological target: T1, DD(E) (Homo sapiens, UniProt P02671+P02675+P02679); assay: dissociation constant against fibrin-derived polypeptide DD(E); type: binding; conditions: read-out: Kd DD(E)
T1 construct: host or cells: purchased fibrinogen clotted with thrombin, digested with plasmin, then purified by ammonium sulfate cuts and Sephacryl S200

fibrinogen = biological target: T2, fibrinogen (Homo sapiens, UniProt P02671+P02675+P02679); assay: binding affinity by equilibrium dialysis; conditions: 190 μM vs. 2.7 μM
T2 sequence (P02671 20-644 isoform P02671-2 limits assumed): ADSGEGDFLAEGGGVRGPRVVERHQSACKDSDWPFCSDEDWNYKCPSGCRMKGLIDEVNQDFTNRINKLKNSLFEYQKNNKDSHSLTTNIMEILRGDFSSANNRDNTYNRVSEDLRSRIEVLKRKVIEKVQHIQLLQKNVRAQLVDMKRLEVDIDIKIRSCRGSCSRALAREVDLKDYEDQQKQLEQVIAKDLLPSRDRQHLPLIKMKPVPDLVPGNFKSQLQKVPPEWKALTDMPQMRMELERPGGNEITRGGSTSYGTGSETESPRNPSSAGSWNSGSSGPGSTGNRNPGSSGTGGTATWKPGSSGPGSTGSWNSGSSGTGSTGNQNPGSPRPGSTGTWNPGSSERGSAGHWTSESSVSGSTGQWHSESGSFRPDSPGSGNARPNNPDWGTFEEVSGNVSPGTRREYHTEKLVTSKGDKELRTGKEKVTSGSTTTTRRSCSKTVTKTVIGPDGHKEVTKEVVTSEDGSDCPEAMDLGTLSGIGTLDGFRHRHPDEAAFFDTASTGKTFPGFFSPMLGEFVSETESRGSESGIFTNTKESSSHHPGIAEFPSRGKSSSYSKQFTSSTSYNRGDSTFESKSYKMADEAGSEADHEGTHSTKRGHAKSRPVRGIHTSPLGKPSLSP
T2 sequence (P02675 31-491): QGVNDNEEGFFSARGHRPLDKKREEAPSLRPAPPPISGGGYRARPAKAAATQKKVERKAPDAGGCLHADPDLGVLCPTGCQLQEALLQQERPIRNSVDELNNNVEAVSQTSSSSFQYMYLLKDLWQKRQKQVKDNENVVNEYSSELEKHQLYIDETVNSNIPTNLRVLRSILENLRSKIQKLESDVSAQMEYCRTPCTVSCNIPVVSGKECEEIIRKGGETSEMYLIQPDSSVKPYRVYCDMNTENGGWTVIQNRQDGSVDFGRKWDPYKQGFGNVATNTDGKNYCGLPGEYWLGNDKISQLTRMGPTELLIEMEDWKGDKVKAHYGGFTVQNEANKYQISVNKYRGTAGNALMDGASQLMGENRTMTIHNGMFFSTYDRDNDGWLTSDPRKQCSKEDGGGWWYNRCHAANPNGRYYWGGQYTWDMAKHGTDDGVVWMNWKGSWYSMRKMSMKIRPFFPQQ
T2 sequence (P02679 27-437 isoform P02679-2 limits assumed): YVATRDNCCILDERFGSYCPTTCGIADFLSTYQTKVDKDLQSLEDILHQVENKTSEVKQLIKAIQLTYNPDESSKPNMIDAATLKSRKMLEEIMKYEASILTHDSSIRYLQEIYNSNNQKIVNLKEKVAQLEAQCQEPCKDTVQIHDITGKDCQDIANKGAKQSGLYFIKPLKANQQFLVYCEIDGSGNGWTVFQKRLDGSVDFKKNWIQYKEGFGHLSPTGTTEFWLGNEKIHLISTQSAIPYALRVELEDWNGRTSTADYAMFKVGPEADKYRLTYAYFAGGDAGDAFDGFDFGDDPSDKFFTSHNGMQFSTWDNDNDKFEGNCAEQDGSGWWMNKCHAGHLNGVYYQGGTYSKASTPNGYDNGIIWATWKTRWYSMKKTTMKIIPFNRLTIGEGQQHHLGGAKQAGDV
Description: A solution of fibrinogen (10 mg/ml) was mixed with the MR labeled peptide of Example 11 designated Gd-DTPA-Pep1, at concentrations of 10, 50 and 100 μM. The fibrinogen/peptide solution was placed on one side of a dialysis membrane in an equilibrium dialysis apparatus. The solution was allowed to equilibrate with an equal volume of buffer on the opposite side of the membrane.

Kd (DD(E)): 2.9 µM
specificity for fibrin over fibrinogen (fibrinogen): roughly 70 fold
Structure (SMILES): CC(C)C[C@H](NC(=O)[C@@H]1CSSC[C@H](NC(=O)[C@@H]2CCCN2C(=O)[C@H](CC(C)C)NC(=O)C[C@@H](C(=O)O)N(CCN(CC(=O)O)CC(=O)O)CCN(CC(=O)O)CC(=O)O)C(=O)N[C@@H](CC(=O)O)C(=O)N[C@@H](Cc2ccc(O)cc2)C(=O)N[C@@H](Cc2ccc(O)cc2)C(=O)NCC(=O)N[C@@H]([C@@H](C)O)C(=O)N1)C(=O)N[C@@H](CC(=O)O)C(N)=O [Gd-DTPA-Pep1]
